Patent US20260224688A1, “HELPER LIPIDS FOR NUCLEIC ACID DELIVERY” (SANOFI PASTEUR INC., priority 2023, published 2026)

Tests used:
[1] = Dynamic light scattering of lipid nanoparticles (size, PDI); format: physicochemical
Description: (§1) Lipid nanoparticle formulations 3 were prepared by Process A at a molar ratio of 40:1.5:30:28.5 (Cationic Lipid: DMG-PEG2000: Cholesterol: Helper Lipid) with the cationic lipids and helper lipids disclosed in the tables below. The Polydispersity Index (Pdl) of lipid nanoparticles can be determined by diluting the formulation in 10% trehalose at about 0.1 mg/ml mRNA concentration and then measuring the size on Malvern zetasizer. The lipid nanoparticle size can be obtained with Malvern Zetasizer Nano-ZS.
Dynamic light scattering (DLS) measurements were performed using a Malvern Instruments Zetasizer with a backscattering detector angle of 173° and a 4-mW, 633-nm He—Ne laser (Worcestershire, UK). The samples were analyzed by diluting in 10% Trehalose and measuring the size and Poly dispersity Index (PDI) in an optical grade polystyrene cuvette.

[2] = mRNA encapsulation efficiency of lipid nanoparticles; format: physicochemical; details: for Encapsulation efficiency (EE): LNP with cationic lipid CL-A
From the text: In embodiments, the lipid nanoparticle encapsulates a nucleic acid, optionally an mRNA encoding a peptide or protein. In embodiments, the lipid nanoparticle encapsulates an mRNA encoding a peptide or protein, optionally for use in a vaccine. In embodiments, the peptide is an antigen. As used herein, the phrase “encapsulation percentage” refers to the fraction of therapeutic agent (e.g. mRNA) that is effectively encapsulated within a liposomal-based vehicle (e.g. a lipid nanoparticle) relative to the initial fraction of therapeutic agent present in the lipid phase. In embodiments, the lipid nanoparticles have an encapsulation percentage for mRNA of at least 50%. In embodiments, the lipid nanoparticles have an encapsulation percentage for mRNA of at least 55%. In embodiments, the lipid nanoparticles have an encapsulation percentage for mRNA of at least 60%. In embodiments, the lipid nanoparticles have an encapsulation percentage for mRNA of at least 65%. In embodiments, the lipid nanoparticles have an encapsulation percentage for mRNA of at least 70%. In embodiments, the lipid nanoparticles have an encapsulation percentage for mRNA of at least 75%. In embodiments, the lipid nanoparticles have an encapsulation percentage for mRNA of at least 80%. In embodiments, the lipid nanoparticles have an encapsulation percentage for mRNA of at least 85%. In embodiments, the lipid nanoparticles have an encapsulation percentage for mRNA of at least 90%. In embodiments, the lipid nanoparticles have an encapsulation percentage for mRNA of at least 95%. In embodiments, the encapsulation percentage is calculated by performing the Ribogreen assay (Invitrogen) with and without the presence of 0.1% Triton-X 100.
The lipid nanoparticles in the examples of the present invention were formulated using Process A of WO 2018/089801 (see, e.g., Example 1 and FIG. 1 of WO 2018/089801). Process A (“A”) relates to a conventional method of encapsulating mRNA by mixing mRNA with a mixture of lipids, without first pre-forming the lipids into lipid nanoparticles. In an exemplary process, an ethanolic solution of a mixture of lipids (cationic lipid, phosphatidylethanolamine, cholesterol, and polyethylene glycol-lipid) at a fixed lipid to mRNA ratio were combined with an aqueous buffered solution of target mRNA at an acidic pH under controlled conditions to yield a suspension of uniform LNPs. After ultrafiltration and diafiltration into a suitable diluent system, the resulting nanoparticle suspensions were diluted to final concentration, filtered, and stored frozen at −80° C. until use.
as §1

hEPO [3] = assay: IM EPO expression of LNPs containing new helper lipids (hEPO in serum by ELISA); format: in vivo, female BALB/cJ mice; details: single IM injection; for 24-h EPO: serum 24 hours post injection
Description: Lipid nanoparticles were formulated containing the four lipid components shown below at a ratio of 40:30:28.5:1.5, complexed with a hEPO messenger RNA. • Cationic lipid, 40 mol % • Phospholipid (PEA) helper lipid, 30 mol % • Cholesterol, 28.5 mol % • DMG-PEG-2K (1,2-dimyristoyl-rac-glycero-3-methoxypolyethyleneglycol), 1.5 mol % The cationic lipid component of each formulation was selected from the compounds in the table below: […]
EPO expression studies were conducted with female BALB/cJ mice 6-8 weeks of age. Mice were dosed with […] EPO mRNA in 30 μL of LNPs by a single intramuscular (IM) injection into the gastrocnemius leg muscle. Blood samples were taken 6 and 24 hours post injection and hEPO levels were measured in the blood serum of the mice using an ELISA assay according to the manufacture's protocol. WO2022/099003 A1 also describes an in vivo assay for intramuscular administration (e.g. on page 46, paragraph [00206]).

hEPO [4] = assay: IV EPO expression of LNPs (tail vein injection); format: in vivo, female BALB/cJ mice; details: cationic lipid CL-0137, helper lipid 30 mol %; 0.017 μg EPO mRNA tail vein; 6 hours; DOPE = 1
Description: Lipid nanoparticles were formulated containing the four lipid components shown below at a ratio of 40:30:28.5:1.5, complexed with a hEPO messenger RNA. • Cationic lipid CL-0137, 40 mol % • Helper lipid, 30 mol % • Cholesterol, 28.5 mol % • DMG-PEG-2K (1,2-dimyristoyl-rac-glycero-3-methoxypolyethyleneglycol), 1.5 mol %
EPO expression studies were conducted with female BALB/cJ mice 6-8 weeks of age. Mice were dosed with 0.017 μg EPO mRNA LNPs in a volume of 5 ul by a single tail vein injection. Blood samples were taken 6 hours post injection and hEPO levels were measured in the blood serum of the mice using an ELISA assay according to the manufacture's protocol.

[5] = LNP with cationic lipid CL-A, hEPO mRNA, 40:30:28.5:1.5
[6] = CL-B LNP, serum 6 hours post injection
[7] = CL-A LNP, 0.1 μg EPO mRNA in 30 μL, serum 6 hours post injection

Row | SMILES | Polydispersity Index (PDI) ([1]; LNP with cationic lipid CL-A) | Size [1, 5] [nm] | PDI ([1]; LNP with cationic lipid CL-B) | Size ([1]; LNP with cationic lipid CL-B) [nm] | PDI ([1]; LNP with cationic lipid CL-C) | Size ([1]; LNP with cationic lipid CL-C) [nm] | PDI ([1]; LNP with cationic lipid CL-D) | Size ([1]; LNP with cationic lipid CL-D) [nm] | Encapsulation efficiency (EE) [2] [%] | EE ([2]; LNP with cationic lipid CL-B) [%] | EE ([2]; LNP with cationic lipid CL-C) [%] | EE ([2]; LNP with cationic lipid CL-D) [%] | 6-h EPO (hEPO [3]; [6]) [ng/mL] | 24-h EPO (hEPO [3]; CL-B LNP) [ng/mL] | 6-h EPO (hEPO [3]; CL-C LNP) [ng/mL] | 6-h EPO (hEPO [3]; CL-C LNP, (6-h)) [ng/mL] | Normalized Mean IV EPO expression (hEPO [4]) | 6-h EPO (hEPO [3]; [7]) [ng/mL] | 24-h EPO (hEPO [3]; CL-A LNP) [ng/mL]
1 | CCCCCCCCC(CCCCCCCC)OC(=O)CCCCCCC(=O)OCC(COP(=O)(O)OCCN)OC(=O)CCCCCCC(=O)OC(CCCCCCCC)CCCCCCCC (stereo not shown) [Compound 6, 2-Aminoethyl (2,3-bis((8-(heptadecan-9-yloxy)-8-oxooctanoyl)oxy)propyl) phosphate] | 0.066 | 159 | 0.049 | 119.9 | 0.037 | 108.9 | 0.063 | 131.5 | 90 | 94 | 94 | 94 | 28.4 | 16.2 | 27.1 | 39.9 | 2.67 |  | 
2 | CCCCCCCCC(CCCCC)COC(=O)CCC(=O)OCC(COP(=O)(O)OCCN(C)C)OC(=O)CCC(=O)OCC(CCCCC)CCCCCCCC (stereo not shown) [Compound 10, O,O′-(3-(((2-(Dimethylamino)ethoxy)(hydroxy)phosphoryl)-oxy)propane-1,2-diyl) bis(2-pentyldecyl) disuccinate)] | 0.046 | 171 | 0.086 | 95.9 | 0.022 | 89.3 | 0.129 | 100.5 | 90 | 83 | 84 | 93 | 12.9 | 10.4 | 10.3 | 14.8 | 1.72 | 20.227 | 10.447
3 | CCCCCCCCC(CCCCCCCC)OC(=O)CCCCCCC(=O)OC[C@@H](COP(=O)(O)OCCN(C)C)OC(=O)CCCCCCC(=O)OC(CCCCCCCC)CCCCCCCC [Compound 13] | 0.048 | 166 | 0.127 | 141.9 | 0.112 | 98.0 |  |  | 94 | 96 | 93 |  | 53.8 |  |  | 64.4 | 1.47 | 8.348 | 
4 | CCCCCCCCCCC(CCCCCCCCCC)OC(=O)CCCCCCC(=O)OCC(COP(=O)(O)OCCN(C)C)OC(=O)CCCCCCC(=O)OC(CCCCCCCCCC)CCCCCCCCCC (stereo not shown) [Compound 19, O′1,O1-(3-(((2-(dimethylamino)ethoxy)(hydroxy)phosphoryl)oxy)propane-1,2-diyl) 8-di(henicosan-11-yl) di(octanedioate)] | 0.075 | 136 | 0.095 | 112.7 | 0.078 | 110.6 |  |  | 94 | 93 | 92 |  | 28.9 |  |  | 12.9 | 2.59 | 11.7 | 
5 | CCCCCCCCOC(=O)CCCCCCCC(=O)OCC(COP(=O)(O)OCCN(C)C)OC(=O)CCCCCCCC(=O)OCCCCCCCC (stereo not shown) [Compound 7, O′^1,O^1-(3-(((2-(Dimethylamino)ethoxy)(hydroxy)phosphoryl)oxy)-propane-1,2-diyl) 9-dioctyl di(nonanedioate)] | 0.09 | 120 | 0.111 | 88.2 | 0.099 | 87.4 | 0.089 | 121.9 | 88 | 92 | 92 | 85 | 3.7 | 1.4 | 2.6 | 5.5 | 0.52 |  | 
6 | CCCCCCCCCC(CCCCCCCCC)C(=O)OCC(COP(=O)(O)OCCN)OC(=O)C(CCCCCCCCC)CCCCCCCCC (stereo not shown) [Compound 3, 3-(((2-Aminoethoxy)(hydroxy)phosphoryl)oxy)propane-1,2-diyl bis(2-nonylundecanoate)] | 0.045 | 137 | 0.101 | 116.4 | 0.038 | 111.9 |  |  | 65 | 25 | 88 |  |  |  | 6.3 | 13.4 | 3.32 |  | 
